These results are taken from patent US5770624A, “Certain alpha-substituted arylsulfonamido acetohydroxamic acids” (priority 1996, dated 1998).

For test [1], the system named is TNF-alpha production by LPS-stimulated THP-1 cells. The test can be described thus: Effect on the production of soluble TNF-alpha by LPS-stimulated THP-1 cells. In kind it is cell-based. The note with it: Homo sapiens, 30 min pre-incubation, 100 ng/ml LPS for 4 hours, ELISA. The procedure: The effect on the production of soluble TNF-alpha by LPS-stimulated THP-1 cells can be determined as follows: Tissue culture medium used is RPM 1640 (Gibco cat #11875-036) containing 10% fetal calf serum, 1% penicillin and streptomycin. TBP-1 cells (ATCC #202-TIB) at 1×10+5 cells/well are added to 100 μl medium or test compound. Cells are pre-incubated with compound for 30 minutes in a 37° C. humidified chamber with 5% CO2 and then stimulated with 100 ng/ml of LPS (Sigma cat #L-4391) for 4 hours. Plates are then centrigued and […] of conditioned medium for TNF analysis is harvested. The amount of TNF-alpha in control and test cultures is determined by ELISA using recombinant TNF-alpha for the standard curve, using TNF ELISA plates (Genzyme) for TNF analysis. Absorbance readings and data calculations are performed on a Molecular Devices plate reader. Results are expressed in IC50 's of test compound.
A general note: In an ELISA, binding on a coated surface is turned into a signal by an enzyme label.

In test [2] the test system is TNF-alpha (synovial fluid). The test can be described thus: Effect on the synovial fluid concentration of TNF-alpha in an inflamed rat knee. Type of test: in vivo, rat (Female lewis). The note with it: 50 mg/Kg p.o., dosed 1-4 h before LPS injected into both knees. The protocol: The effect on the synovial fluid concentration of TNF-alpha in an inflamed rat knee can be determined as follows: Female lewis rats are dosed by gavage with test compound in 0.1 ml cornstarch vehicle. One to four hours after administration of test compound 0.1 mg Lipopolysaccharide from E. coli 0127:B8 (Difco #3880-25-0) is injected into both knees. Two hours after intra-articular LPS injection, knees are lavaged with 0.1 ml saline and 2 lavages from same rat are pooled. TNF-alpha is measured using mouse TNF-alpha ELISA kit (Genzyme) which crossreacts with rat TNF-alpha Results are expressed as % inhibition of mean TNF-alpha concentration in synovial fluid from saline-injected knees.

Test [3] has as its system collagen-II induced arthritis in mice. The test can be described thus: Collagen II induced arthritis model in mice. In kind it is in vivo. The note with it: mouse, 100 mg/Kg p.o. An excerpt:
Antiinflammatory activity can be determined in standard inflammation and arthritic animal models well-known in the art, e.g. the adjuvant arthritis model in rats and the collagen II induced arthritis model in mice [Mediators of […]. 1, 273-279 (1992)].

The target in test [4] is T1, recombinant human stromelysin (Homo sapiens, UniProt P08254).
T1 construct: recombinant human stromelysin (mol. wt. 45-47 kDa, 2 Units)
The test can be described thus: Inhibition of stromelysin activity (hydrolysis of Substance P). In kind it is biochemical. The note with it: 30 min at 37° C. The procedure:
One test to determine the inhibition of stromelysin activity is based on its hydrolysis of Substance P using a modified procedure of Harrison et al (Harrison, […]., and Stein R., A semicontinuous, high performance chromatography based assay for stromelysin, Anal. Biochem. 18, 110-113 (1989)). In this assay, Substance P is hydrolyzed by recombinant human stromelysin to generate a fragment, Substance P 7-11, which can be quantitated by HPLC. In a typical assay, a 10 mM stock solution of a compound to be tested is diluted in the assay buffer to 50 μM, mixed 1:1 with 8 μg recombinant human stromelysin (mol. wt. 45-47 kDa, 2 Units; where 1 Unit produces […] of Substance P 7-11 in 30 minutes) and incubated along with 0.5 mM Substance P in a final volume of 0.125 ml for 30 minutes at 37° C. The reaction is stopped by adding 10 mM EDTA and Substance P 7-11 is quantified on RP-8 HPLC. The IC50 for inhibition of stromelysin activity and Ki are calculated from control reaction without the inhibitor.

Test [5] concerns the target T2, Human recombinant fibroblast collagenase (Homo sapiens, UniProt P03956).
T2 sequence (P03956 100-469): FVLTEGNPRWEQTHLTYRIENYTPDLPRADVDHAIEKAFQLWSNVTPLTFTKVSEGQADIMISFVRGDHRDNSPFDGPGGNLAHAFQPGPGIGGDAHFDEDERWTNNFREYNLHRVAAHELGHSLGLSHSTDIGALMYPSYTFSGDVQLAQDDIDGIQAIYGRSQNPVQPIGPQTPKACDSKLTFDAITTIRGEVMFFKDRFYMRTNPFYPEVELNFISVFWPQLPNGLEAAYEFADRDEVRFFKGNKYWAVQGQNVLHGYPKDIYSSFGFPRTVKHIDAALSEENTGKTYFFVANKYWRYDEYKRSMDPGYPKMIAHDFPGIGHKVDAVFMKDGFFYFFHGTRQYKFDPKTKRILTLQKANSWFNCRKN
The test can be described thus: Collagenase activity (digestion of bovine type I collagen). Type of test: biochemical. The note with it: 2 hours at 35° C., read-out: IC50 for inhibition of collagenase activity. The procedure: Collagenase activity is determined as follows: ninety six-well, flat-bottom microtiter plates are first coated with bovine type I collagen (35 ug/well) over a two-day period at 30° C. using a humidified and then dry atmosphere; plates are rinsed, air dried for 34 hours, sealed with Saran wrap and stored in a refrigerator. Human recombinant fibroblast collagenase and a test compound (or buffer) are added to wells (total volume =0.1 ml) and plates are incubated for 2 hours at 35° C. under humidified conditions; the amount of collagenase used per well is that causing approximately 80% of maximal digestion of collagen. The incubation media are removed from the wells, which are then rinsed with buffer, followed by water. Coomasie blue stain is added to the wells for 25 minutes, removed, and wells are again rinsed with water. Sodium dodecyl sulfate (20% in 50% dimethylformamide in water) is added to solubilize the remaining stained collagen and the optical density at 570 nm wave length is measured. The decrease in optical density due to collagenase (from that of collagen without enzyme) is compared to the decrease in optical density due to the enzyme in the presence of test compound, and percent inhibition of enzyme activity is calculated. IC50's are determined from a range of concentrations of inhibitors (4-5 concentrations, each tested in triplicate), and Ki values are calculated.

In another test the test system is TNF-alpha (plasma). The test can be described thus: Effect on the plasma concentration of TNF-alpha in the mouse following intravenous injection of endotoxin. In kind it is in vivo, mouse (Female Balb-CbyJ). The note with it: about 50 mg/Kg p.o., dosed 1-4 h before 0.1 mg/kg LPS i.v. The protocol: The effect on the plasma concentration of TNF-alpha in the mouse following intravenous injection of endotoxin can be determined as follows:
Female Balb-CbyJ mice are dosed by gavage with test compound in 0.1 ml cornstarch vehicle/10 grams body weight. One to four hours after administration of test compound, 0.1 mg/kg Lipopolysaccharide from E. coli 0127:B8 (Difco #3880-25-0) in saline is injected i.v. One hour after i.v. injection of LPS, blood is collected for determination of plasma TNF-alpha using mouse TNF-alpha ELISA kit (Genzyme). Eight mice are used per treatment group. Results are expressed as % inhibition of mean TNF-alpha concentration in control mice.

pIC50: −log10 of the molar value. Structures can show the parent of a compound that is named as a salt.

T1 sequence (P08254 100-477): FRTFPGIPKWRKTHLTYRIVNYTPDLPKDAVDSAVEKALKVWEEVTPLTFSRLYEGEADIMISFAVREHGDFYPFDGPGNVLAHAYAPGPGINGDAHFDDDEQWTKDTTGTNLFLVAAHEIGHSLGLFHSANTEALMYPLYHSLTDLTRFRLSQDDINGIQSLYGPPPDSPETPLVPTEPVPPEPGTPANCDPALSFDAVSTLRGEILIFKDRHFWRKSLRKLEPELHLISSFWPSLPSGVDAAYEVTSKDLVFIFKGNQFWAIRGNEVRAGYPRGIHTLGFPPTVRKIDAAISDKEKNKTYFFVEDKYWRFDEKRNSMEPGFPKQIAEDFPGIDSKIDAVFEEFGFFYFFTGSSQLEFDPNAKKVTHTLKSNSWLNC

What is called pIC50 is the negative decadic logarithm of the IC50, by convention in mol/L. With `CCCO[C@H]1CC[C@H]([C@H](C(=O)NO)N(Cc2ccncc2)S(=O)(=O)c2ccc(OCC)cc2)CC1.Cl` [2(u), N-hydroxy-2(R)-[(4ethoxybenzenesulfonyl)(4-picolyl)amino]-2-(trans-4-propoxycyclohexyl)acetamide hydrochloride], the pIC50 in test [1] was ~5.60; in test [4] it was ~7.96; in test [5], ~7.35. For the same molecule, in test [2], the “reduction of TNF-α concentration in the synovial fluid” value is given as ~98%. Also, the “inhibition of collagen-II induced arthritis in mice” value in test [3] is “effective in inhibiting collagen-II induced arthritis”.

Regarding `CCCO[C@H]1CC[C@H]([C@H](C(=O)NO)N(Cc2ccncc2)S(=O)(=O)c2ccc(OC)cc2)CC1` [Example 1, hydrochloride], the figures for the negative-log IC50 (pIC50) in test [1], in test [4] and in test [5] were ~5.60, ~7.80 and ~7.10, respectively. Also, in the test with TNF-alpha (plasma), the “% inhibition of mean plasma TNF-alpha concentration in control mice” value is 50%. In addition, the “reduction of TNF-α concentration in the synovial fluid” value in test [2] is recorded as “about 70%”. In addition, the “inhibition of collagen-II induced arthritis in mice” value in test [3] was “effective in inhibiting collagen-II induced arthritis”.
